From patent publication US20210085585A1, “A PERSONAL CARE COMPOSITION” (Conopco, Inc., d/b/a UNILEVER, priority 2017, published 2021) come the findings set out here.

The test system of the assay is co-cultures of HaCaT keratinocytes and neonatal primary human epidermal melanocytes. Kind of assay: Melanin content assay (cellular melanin content in keratinocyte-melanocyte co-cultures). The assay is classed as cell-based. Conditions: 72 h treatment, average % reduction in cellular melanin content; for inhibition at 10000 µM: single active at 10 mM. Here is the method:
Neonatal primary human epidermal melanocytes were sourced from Life Technologies. Melanocytes were maintained in Medium 254 supplemented with Human Melanocyte Growth Supplement-2 (MGM).
HaCaT keratinocytes were maintained in DMEM medium containing 10% heat inactivated foetal bovine serum. All media were also supplemented with 10 U/mL penicillin G and 0.1 mg/mL streptomycin sulphate. Both cell types were maintained at 37° C. in a humidified incubator with 5% CO2 atmosphere.
Maintenance and sub-culturing of cells were carried out as per the manufacturer's instructions. For setup of co-cultures, HaCaT keratinocytes and melanocytes, each 40,000 cells were mixed (1:1 ratio) in 1 mL of a 1:1 mix of MGM:GM (KGM: EpiLife Medium supplemented with Human Keratinocyte Growth Supplement) and seeded as such per well, in 12 well Nunc plates.
Actives were prepared in media and test concentrations were added to cells along with relevant controls 24 h post seeding. After 72 h of active treatment, cell viability (using calcein method) and measurement of cellular melanin content was determined as described below.
After calcein fluorescence readings were obtained, cells were drained and fresh 0.15 mL of 1N NaOH (in 10% DMSO) per well was added. Cells were lysed by resuspension and incubated (60° C. for 1 h). Then, 0.1 mL of this lysate was transferred to a fresh 384-well plate and OD was measured at 405 nm in a TECAN M1000 plate reader (estimate of relative melanin content).

With `O=C(O)CCN1CCCCC1` [1PP, 1-piperidinepropionic acid], the inhibition (commonly the drop in the measured response relative to a control, in per cent) at 10000 µM was 0%. Besides, the inhibition at 100 µM (single active at 100 uM) is 1%. The inhibition at 1000 µM (single active at 1 mM) is -5%.

As for `NC(=O)c1cccnc1` [3-pyridinecarboxamide], the inhibition at 10000 µM was found to be 0%.
